PubChem BioAssay AID1996
Converted amounts (≈) assume the structure as drawn.

details: buffer; pH 7.4; 200.0 µM

Question: With `O=[N+]([O-])c1ccc2c(c1)ncn2CCc1ccccc1` as the compound, how does the solubility kinetic read?
Answer: 8 µg/mL (≈ 29.9 µM)

Question: With `Cc1ccccc1NC1=NCC(c2ccc([N+](=O)[O-])cc2)S1` (centres undefined) as the compound, how does the solubility kinetic read?
Answer: 10.5 µg/mL (≈ 33.5 µM)

Question: With `CCOC(=O)c1ccccc1NC(=O)Cc1ccc(S(=O)(=O)N2CCCC2)s1` as the compound, how does the solubility kinetic read?
Answer: 17.5 µg/mL (≈ 41.4 µM)

Question: For `CCCNC(=O)C/C(C)=N/NC(=O)C(=O)Nc1ccccn1`, which solubility kinetic is on record?
Answer: > 45.8 µg/mL

Question: For `Cc1cc(C(=O)OCC(=O)N2CCOCC2)c(C)n1-c1ccccc1`, which solubility kinetic is on record?
Answer: 48.6 µg/mL (≈ 142 µM)

Question: For `CC(=O)N1CCN(C(=O)CCC(=O)O)CC1`, which solubility kinetic is on record?
Answer: 30.9 µg/mL (≈ 135 µM)

Question: With `CSCCC(NC(=O)c1ccco1)C(=O)NC1CCC(C)CC1` (centres undefined) as the compound, how does the solubility kinetic read?
Answer: > 50.8 µg/mL

Question: Which solubility kinetic does the source give for `COc1cccc(Nc2nc3cc(OC)ccc3cc2C#N)c1` here?
Answer: 0.2 µg/mL (≈ 0.655 µM)

Question: Which solubility kinetic does the source give for `O=C1Cc2cc(S(=O)(=O)NCc3ccc(F)cc3)ccc2N1` here?
Answer: 16.7 µg/mL (≈ 52.1 µM)

Question: Which solubility kinetic does the source give for `Cc1c(NS(=O)(=O)c2cccc(C(=O)N3CCCC3)c2)c(=O)n(-c2ccccc2)n1C` here?
Answer: > 66.1 µg/mL

Question: Which solubility kinetic does the source give for `O=C1CCC(=O)N1OCCOc1ccccc1` here?
Answer: > 35.3 µg/mL

Question: With `COc1ccc(C(=O)O)cc1NCc1cccnc1` as the compound, how does the solubility kinetic read?
Answer: 36.8 µg/mL (≈ 142 µM)

Question: For `Cc1cccc(C)c1NC(=O)COC(=O)/C=C/c1ccc(S(=O)(=O)N2CCOCC2)cc1`, which solubility kinetic is on record?
Answer: 2.2 µg/mL (≈ 4.8 µM)

Question: For `O=C(Nc1ccc(Cl)c(Cl)c1)NC1CCS(=O)(=O)C1` (centres undefined), which solubility kinetic is on record?
Answer: 43.9 µg/mL (≈ 136 µM)

Question: Which solubility kinetic does the source give for `COc1cccc(-c2cc(-c3cccnc3)c(C#N)c(N)n2)c1` here?
Answer: 0.7 µg/mL (≈ 2.32 µM)

Question: Which solubility kinetic does the source give for `O=C(CNC(=O)c1ccc(Cl)cc1)NC(CO)c1ccccc1` (centres undefined) here?
Answer: 32.6 µg/mL (≈ 98 µM)

Question: Which solubility kinetic does the source give for `O=C(O)c1ccccc1CSc1ncccc1C(=O)O` here?
Answer: > 43.4 µg/mL

Question: For `Cc1ccc(C)c(NC(=O)CCN2CCCCC2)c1`, which solubility kinetic is on record?
Answer: > 39.1 µg/mL

Question: With `O=C(CSc1cccc[n+]1[O-])NC1CCCCCCC1` as the compound, how does the solubility kinetic read?
Answer: 39.3 µg/mL (≈ 133 µM)

Question: For `O=[N+]([O-])c1ccc(S(=O)(=O)NCC2CC3CCC2C3)cc1` (centres undefined), which solubility kinetic is on record?
Answer: 5.5 µg/mL (≈ 17.7 µM)

Question: Which solubility kinetic does the source give for `Cc1cc(NCC2CCCCC2)nc2ccccc12` here?
Answer: 21.4 µg/mL (≈ 84.1 µM)

Question: For `COc1ccc(OCCn2ccnc2C)cc1.O=C(O)C(=O)O`, which solubility kinetic is on record?
Answer: 41.7 µg/mL

Question: Which solubility kinetic does the source give for `O=C(COC(=O)c1ccc(O)cc1)Nc1ccc(OC(F)F)cc1` here?
Answer: 29.9 µg/mL (≈ 88.7 µM)

Question: For `NC(=O)C1CCN(C(=S)NC2CC3C=CC2C3)CC1` (centres undefined), which solubility kinetic is on record?
Answer: > 41.9 µg/mL

Question: Which solubility kinetic does the source give for `Cc1cccc(NC(=O)CSCC(=O)NCc2ccco2)c1` here?
Answer: > 47.8 µg/mL

Question: Which solubility kinetic does the source give for `Cc1cccc(C)c1NC(=S)N(Cc1cccs1)C1CCCC1` here?
Answer: 0.6 µg/mL (≈ 1.74 µM)

Question: Which solubility kinetic does the source give for `Cc1cc(C)n(-c2cccc(C(=O)O)c2)n1` here?
Answer: > 32.4 µg/mL

Question: With `CC(=O)N1CC2([N+](=O)[O-])CN(C(C)=O)CC([N+](=O)[O-])(C1)C2(C)C` as the compound, how does the solubility kinetic read?
Answer: > 49.2 µg/mL

Question: With `CCCC(=O)Oc1ccc(C2NC(=O)c3ccccc3O2)cc1OC` (centres undefined) as the compound, how does the solubility kinetic read?
Answer: 3.9 µg/mL (≈ 11.4 µM)

Question: With `O=C(NC1CC1)C(Cl)c1ccccc1` (centres undefined) as the compound, how does the solubility kinetic read?
Answer: > 31.5 µg/mL

Question: With `CCc1c(C)nc(N2CCN(c3ccccc3)CC2)[nH]c1=O` as the compound, how does the solubility kinetic read?
Answer: 8.8 µg/mL (≈ 29.5 µM)

Question: Which solubility kinetic does the source give for `CC(NC=O)c1nc2ccccc2n1CCc1ccccc1` (centres undefined) here?
Answer: 43.9 µg/mL (≈ 150 µM)

Question: For `COC(=O)C1=C(C)N(CCc2c[nH]c3ccccc23)C(=O)C1`, which solubility kinetic is on record?
Answer: 42.8 µg/mL (≈ 143 µM)

Question: For `CCC(OC(=O)c1ccco1)C(=O)NC1CCCC1` (centres undefined), which solubility kinetic is on record?
Answer: > 39.8 µg/mL

Question: Which solubility kinetic does the source give for `CC1CCN(C(=O)COC(=O)c2ccc3c(c2)OCCO3)CC1` here?
Answer: > 47.9 µg/mL

Question: For `COc1ccc(NC(=O)c2ccc3ccccc3c2)cc1`, which solubility kinetic is on record?
Answer: < 0.6 µg/mL

Question: Which solubility kinetic does the source give for `CSc1ccccc1NC(=O)CN(C)CC(=O)Nc1ccc(S(=O)(=O)N2CCCC2)cc1` here?
Answer: 1.3 µg/mL (≈ 2.73 µM)

Question: For `Clc1ccc(Cl)c(OCCCCN2CCCCC2)c1`, which solubility kinetic is on record?
Answer: 29.5 µg/mL (≈ 97.6 µM)

Question: Which solubility kinetic does the source give for `COC(=O)c1c(NC(=O)C2=COCCO2)sc(C)c1C` here?
Answer: 0.7 µg/mL (≈ 2.35 µM)

Question: Which solubility kinetic does the source give for `Cc1noc(C)c1COc1cccc(C(=O)Nc2ccc(Br)cc2F)c1` here?
Answer: 9.6 µg/mL (≈ 22.9 µM)

Question: For `CCOc1ccc(NC(=O)NC2CC(=O)N(c3ccc(OC)cc3)C2)cc1` (centres undefined), which solubility kinetic is on record?
Answer: 7.7 µg/mL (≈ 20.8 µM)

Question: With `O=C(O)c1c2c(nc3ccccc13)/C(=C/c1ccc(O)cc1)CCC2` as the compound, how does the solubility kinetic read?
Answer: > 49.7 µg/mL

Question: For `CCCc1nnc(SCC(=O)Nc2cc(C)on2)n1CCOC`, which solubility kinetic is on record?
Answer: > 50.9 µg/mL

Question: For `Cc1ccccc1OCCN(C#N)c1nc(N(C)C)nc(N(C)C)n1`, which solubility kinetic is on record?
Answer: 0.4 µg/mL (≈ 1.17 µM)

Question: Which solubility kinetic does the source give for `COc1cc2c(cc1NC(=O)COCC(=O)O)oc1ccccc12` here?
Answer: > 49.4 µg/mL

Question: Which solubility kinetic does the source give for `CC(=O)C(Cc1ccccc1)NC(=O)COC(=O)c1cccc(C)c1[N+](=O)[O-]` (centres undefined) here?
Answer: > 57.7 µg/mL

Question: With `CC1CCCC(NC(=O)COC(=O)CCC(=O)c2ccc(F)cc2)C1C` (centres undefined) as the compound, how does the solubility kinetic read?
Answer: 11.5 µg/mL (≈ 31.6 µM)

Question: Which solubility kinetic does the source give for `COc1ccc(C(=O)OCC(=O)NC(=O)Nc2ccccc2F)c(OC)c1` here?
Answer: 2.4 µg/mL (≈ 6.38 µM)

Question: Which solubility kinetic does the source give for `C=CCNC(=S)Nc1ccc(C)cc1[N+](=O)[O-]` here?
Answer: > 37.7 µg/mL

Question: Which solubility kinetic does the source give for `Cc1c(C)c(C)c(S(=O)(=O)NCCc2ccncc2)c(C)c1C` here?
Answer: 2 µg/mL (≈ 6.02 µM)

Question: With `CCN(CC)S(=O)(=O)c1ccc(NC(=O)c2cnccn2)cc1` as the compound, how does the solubility kinetic read?
Answer: 7.8 µg/mL (≈ 23.3 µM)

Question: Which solubility kinetic does the source give for `O=C(Nc1nc2ccsc2c(=O)s1)c1ccco1` here?
Answer: 7.3 µg/mL (≈ 26.2 µM)

Question: Which solubility kinetic does the source give for `Cc1nnc(-c2cnn(C)c2N)n1CCCN1CCOCC1` here?
Answer: > 45.8 µg/mL

Question: Which solubility kinetic does the source give for `CC(=O)c1ccc(NC(=O)c2cc(=O)[nH]c3ccccc23)cc1` here?
Answer: 2 µg/mL (≈ 6.53 µM)

Question: For `N#Cc1ccc(C(=O)Nc2cccc3ccccc23)c(F)c1`, which solubility kinetic is on record?
Answer: 0.9 µg/mL (≈ 3.1 µM)

Question: With `O=C(O)c1ccc(S(=O)(=O)NCC2CCCCC2)cc1` as the compound, how does the solubility kinetic read?
Answer: > 44.6 µg/mL

Question: With `Cc1cccc(NC(=O)CN(C)C(=O)C2CC2)c1C` as the compound, how does the solubility kinetic read?
Answer: > 39.1 µg/mL

Question: With `N#Cc1ccc(NC(=O)C2=COCCO2)cc1` as the compound, how does the solubility kinetic read?
Answer: > 34.5 µg/mL

Question: For `Cc1ccc(C(OC(=O)c2ccco2)C(=O)NC(C)(C)C)cc1` (centres undefined), which solubility kinetic is on record?
Answer: 17 µg/mL (≈ 53.9 µM)
